Test results from ChEMBL document CHEMBL3593209, “5-Aryl-1H-pyrazole-3-carboxylic acids as selective inhibitors of human carbonic anhydrases IX and XII” (Bioorg Med Chem, 2015).

Columns and labels:
Carbonic anhydrase 1 = Carbonic anhydrase 1 (Homo sapiens, UniProt P00915); experiment: Inhibition of human recombinant carbonic anhydrase 1 expressed in Escherichia coli preincubated for 15 mins by stopped flow CO2 hydration method
Carbonic anhydrase 2 = Carbonic anhydrase 2 (Homo sapiens, UniProt P00918); experiment: Inhibition of human recombinant carbonic anhydrase 2 expressed in Escherichia coli preincubated for 15 mins by stopped flow CO2 hydration method
Carbonic anhydrase 9 = Carbonic anhydrase 9 (Homo sapiens, UniProt Q16790)
Description: Inhibition of human recombinant carbonic anhydrase 9 expressed in Escherichia coli preincubated for 15 mins by stopped flow CO2 hydration method

Carbonic anhydrase 12 = Carbonic anhydrase 12 (Homo sapiens, UniProt O43570); experiment: Inhibition of human recombinant carbonic anhydrase 12 expressed in Escherichia coli preincubated for 15 mins by stopped flow CO2 hydration method
[1] = Dissociation constant, acidic pKa of the compound by spectrophotometric analysis

Chain of Carbonic anhydrase 1 (P00915 whole entry): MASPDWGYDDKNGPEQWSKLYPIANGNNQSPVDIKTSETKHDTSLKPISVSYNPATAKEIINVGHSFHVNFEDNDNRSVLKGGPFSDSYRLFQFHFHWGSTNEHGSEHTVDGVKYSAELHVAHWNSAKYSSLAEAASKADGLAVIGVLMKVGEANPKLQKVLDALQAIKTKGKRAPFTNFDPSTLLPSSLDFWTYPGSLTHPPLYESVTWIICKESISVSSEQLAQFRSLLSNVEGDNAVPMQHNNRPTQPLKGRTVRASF
Chain of Carbonic anhydrase 12 (O43570 whole entry): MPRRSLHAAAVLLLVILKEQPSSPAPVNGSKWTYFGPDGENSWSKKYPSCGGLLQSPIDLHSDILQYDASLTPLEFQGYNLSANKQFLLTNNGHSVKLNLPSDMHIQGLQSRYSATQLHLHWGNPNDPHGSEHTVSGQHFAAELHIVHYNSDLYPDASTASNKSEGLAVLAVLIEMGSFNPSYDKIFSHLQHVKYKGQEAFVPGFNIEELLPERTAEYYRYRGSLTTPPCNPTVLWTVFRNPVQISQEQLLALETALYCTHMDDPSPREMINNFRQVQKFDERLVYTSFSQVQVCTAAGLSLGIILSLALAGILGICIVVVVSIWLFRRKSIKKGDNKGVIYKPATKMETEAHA

SMILES | Ki (Carbonic anhydrase 1) [µM] | Ki (Carbonic anhydrase 2) [µM] | Ki (Carbonic anhydrase 9) [µM] | Ki (Carbonic anhydrase 12) [µM] | pKa [1]
O=C(O)c1cc(-c2ccc(Cl)cc2)n[nH]1 | > 50 | > 50 | > 50 | 50 | 
CCc1ccc(-c2cc(C(=O)O)[nH]n2)cc1 | > 50 | > 50 | 42 | 4.5 | 
O=C(O)c1cc(-c2ccc(O)cc2)n[nH]1 | > 50 | > 50 | > 50 | 41 | 
COc1ccc(-c2cc(C(=O)O)n[nH]2)cc1 | > 50 | > 50 | 49.5 | > 50 | 3.31
Cc1ccc(-c2cc(C(=O)O)[nH]n2)c(C)c1 | > 50 | > 50 | 45 | > 50 | 
Cc1ccc(-c2cc(C(=O)O)[nH]n2)cc1C | > 50 | > 50 | 48 | > 50 | 
O=C(O)c1cc(-c2ccc(F)cc2)n[nH]1 | > 50 | > 50 | > 50 | 38.5 | 
CC(C)c1ccc(-c2cc(C(=O)O)[nH]n2)cc1 | > 50 | > 50 | > 50 | > 50 | 
Cc1ccc(-c2cc(C(=O)O)[nH]n2)cc1 | > 50 | > 50 | > 50 | > 50 | 
O=C(O)c1cc(-c2ccc3ccccc3c2)[nH]n1 | > 50 | > 50 | > 50 |  | 
CCCCc1ccc(-c2cc(C(=O)O)n[nH]2)cc1 | > 50 | > 50 | 39 |  | 
CC(C)(C)c1ccc(-c2cc(C(=O)O)n[nH]2)cc1 | > 50 | > 50 | 5 |  | 
Cc1cc(C)c(-c2cc(C(=O)O)n[nH]2)cc1C | > 50 | > 50 | 23.5 | > 50 | 
Cc1cc(C)c(C)c(-c2cc(C(=O)O)n[nH]2)c1C | > 50 | > 50 | 5 | > 50 | 
CCc1cc(CC)c(-c2cc(C(=O)O)n[nH]2)c(CC)c1 | > 50 | > 50 | > 50 | > 50 | 
CC(C)c1ccc(-c2cc(C(=O)O)n[nH]2)c(C(C)C)c1 | > 50 | > 50 | 16 | > 50 | 
CC(C)c1cc(C(C)C)c(-c2cc(C(=O)O)n[nH]2)c(C(C)C)c1 | > 50 | > 50 | 39 |  | 
O=C(O)c1cc(-c2ccc3c(c2)CCCC3)[nH]n1 | > 50 | > 50 | > 50 |  | 
O=C(O)c1cc(-c2ccc(-c3ccccc3)cc2)[nH]n1 | > 50 | > 50 | > 50 |  | 
O=C(O)c1cc(-c2ccc(N3CCCC3)cc2)[nH]n1 | > 50 | > 50 | > 50 |  | 
O=C(O)c1cc(-c2cccc(Br)c2)[nH]n1 | > 50 | > 50 | 23.5 | > 50 | 
COc1ccccc1-c1cc(C(=O)O)n[nH]1 | > 50 | > 50 | > 50 |  | 
COc1cc(C)c(-c2cc(C(=O)O)n[nH]2)cc1C | > 50 | > 50 | 22.5 | > 50 | 
